Measured values reported in PubChem BioAssay AID1963978 (Molecular Pharmacology Branch, DTP, NCI, 2024).

Tested on: 616215-338-R-J1-PDC spheroids with HUVEC/MSC, viability
Assay: Anticancer human tumor 616215-338-R-J1-PDC patient-derived colon adenocarcinoma cell line growth inhibition [PI3K]
Conditions: for IC50: curve of first compound; for viability, T/C: stronger effect = lower value
Source text: Combinatorial screen of targeted agents with the PI3K inhibitors inavolisib, alpelisib, duvelisib, and copanlisib in multi-cell type tumor spheroids
A high-throughput screen of multi-cell type tumor spheroids was designed to identify active combinations of targeted small molecules and PI3K pathway inhibitors. Complex spheroids include a stromal component modeled by human endothelial cells (HUVEC) and fibroblasts modeled by human mesenchymal stem cells (MSCs). The concentration ranges selected for each drug and investigational agent were based upon clinically achievable concentrations if the clinical Cmax of the agent was known.
Compounds. The drugs and investigational agents: inavolisib (NSC800729), alpelisib (NSC765974), duvelisib (NSC772469), copanlisib (NSC816437), ipatasertib (NSC767898), afuresertib (NSC778305), talazoparib (NSC767125), sapanisertib (NSC764658), selumetinib (NSC741078), tovorafenib (DAY101, NSC766906), vemurafenib (NSC761431), ravoxertinib (NSC781343), sotorasib (NSC818433), MRTX1133 (NSC 836407), abemaciclib (NSC 768073), palbociclib (NSC758247), venetoclax (NSC 766270), SY5609 (NSC837396), enzalutamide (NSC755605), and darolutamide (NSC825331), were obtained from the National Cancer Institute (NCI) Developmental Therapeutics Program Chemical Repository. The FDA-approved anticancer drug set is available from the NCI Developmental Therapeutics Program. […] The stock solutions were prepared in dimethyl sulfoxide (DMSO, Sigma-Aldrich, St. Louis, MO, cat. D2650) at 800-fold the tested concentration and stored at -70 degrees C prior to their use. All drugs and investigational agents were tested over a range starting from a high concentration at or near the clinical Cmax and decreasing in half-log increments. If the clinical Cmax for an agent had not been determined, the highest concentration tested was 10 microM.
Cell Culture. All cells were maintained in an incubator at 37 degrees C and 5% CO2 with 95% humidity. The PDC lines were cultured according to standard operating procedures established by the NCI PDMR (https://pdmr.cancer.gov/sops/default.htm). All PDCs were thawed and cultured in Matrigel-coated flasks prepared with a working solution of 1X Ham's F-12 nutrient mix, without supplementation (Invitrogen, Waltham, MA, cat. 11765054), 100 U/mL penicillin-streptomycin (Invitrogen, cat. 15140122), and 2.5% Matrigel (Corning Inc., Corning, NY, cat. 354248) for the first three passages. The 354836-022-R-J1-PDC, 475296-252-R-J1-PDC, and 997726-040-R-J2-PDC lines were cultured in 6A media, which includes advanced DMEM/F-12 (Thermo Fisher Scientific, cat. 12634028), 10 mM HEPES (Thermo Fisher Scientific, cat. 15630080), 1X GlutaMAX supplement (Thermo Fisher Scientific, cat. 35050061), 0.1 mg/mL primocin (InvivoGen, San Diego, CA, cat. ant-pm-2), 10% defined fetal bovine serum, heat inactivated (HyClone Laboratories Inc., Logan, UT, cat. SH30070.03HI), 50% L-WRN conditioned media (ATCC, cat. CRL-3276), 1.25 mM N-Acetyl-L-cysteine (Sigma-Aldrich, cat. A9165), 10 mM nicotinamide (Sigma-Aldrich, cat. N0636), 1X B-27 supplement (Thermo Fisher Scientific, cat. 17504044), 1X N-2 supplement (Thermo Fisher Scientific, cat. 17502048), and 10 microM Y-27632 dihydrochloride (Tocris Bioscience, Bristol, United Kingdom, cat. 1254). The 624824-186-R-J2-PDC line was cultured in 6C/Colon 1B media, which includes all 6A media components plus 50 ng/mL human EGF recombinant protein (Thermo Fisher Scientific, cat. PHG0311). […]

[1] = second compound 0.00316 µM, first compound 0.0316 µM
[2] = second compound 0.00316 µM, first compound 0.1 µM
[3] = second compound 0.01 µM, first compound 0.0316 µM
[4] = second compound 0.01 µM, first compound 0.1 µM
[5] = second compound 0.0316 µM, first compound 0.0316 µM
[6] = second compound 0.0316 µM, first compound 0.1 µM
[7] = second compound 0.1 µM, first compound 0.0316 µM
[8] = second compound 0.1 µM, first compound 0.1 µM
[9] = second compound 0.316 µM, first compound 0.0316 µM
[10] = second compound 0.316 µM, first compound 0.1 µM
[11] = second compound 1 µM, first compound 0.0316 µM
[12] = second compound 1 µM, first compound 0.1 µM
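Further: spheroids exposed to agents for seven days before the viability read.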

SMILES: CC(=O)c1c(C)c2cnc(Nc3ccc(N4CCNCC4)cn3)nc2n(C2CCCC2)c1=O + CC(Nc1ccc2c(c1)OCCn1cc(N3C(=O)OCC3C(F)F)nc1-2)C(N)=O
- IC50 (second compound 0.00316 µM): > 0.1 µM
- IC50 (second compound 0.01 µM): > 0.1 µM
- IC50 (second compound 0.0316 µM): > 0.1 µM
- IC50 (second compound 0.1 µM): > 0.1 µM
- IC50 (second compound 0.316 µM): > 0.1 µM
- IC50 (second compound 1 µM): > 0.1 µM
- viability, T/C (second compound 0.00316 µM, first compound 0.000316 µM): 87.7%
- viability, T/C (second compound 0.00316 µM, first compound 0.001 µM): 104%
- viability, T/C (second compound 0.00316 µM, first compound 0.00316 µM): 93%
- viability, T/C (second compound 0.00316 µM, first compound 0.01 µM): 99.4%
- viability, T/C [1]: 94.6%
- viability, T/C [2]: 95.9%
- viability, T/C (second compound 0.01 µM, first compound 0.000316 µM): 99.6%
- viability, T/C (second compound 0.01 µM, first compound 0.001 µM): 100%
- viability, T/C (second compound 0.01 µM, first compound 0.00316 µM): 107%
- viability, T/C (second compound 0.01 µM, first compound 0.01 µM): 90.2%
- viability, T/C [3]: 99.5%
- viability, T/C [4]: 96.5%
- viability, T/C (second compound 0.0316 µM, first compound 0.000316 µM): 93.2%
- viability, T/C (second compound 0.0316 µM, first compound 0.001 µM): 102%
- viability, T/C (second compound 0.0316 µM, first compound 0.00316 µM): 98.2%
- viability, T/C (second compound 0.0316 µM, first compound 0.01 µM): 101%
- viability, T/C [5]: 91.5%
- viability, T/C [6]: 107%
- viability, T/C (second compound 0.1 µM, first compound 0.000316 µM): 102%
- viability, T/C (second compound 0.1 µM, first compound 0.001 µM): 99%
- viability, T/C (second compound 0.1 µM, first compound 0.00316 µM): 92.6%
- viability, T/C (second compound 0.1 µM, first compound 0.01 µM): 112%
- viability, T/C [7]: 93.8%
- viability, T/C [8]: 101%
- viability, T/C (second compound 0.316 µM, first compound 0.000316 µM): 106%
- viability, T/C (second compound 0.316 µM, first compound 0.001 µM): 112%
- viability, T/C (second compound 0.316 µM, first compound 0.00316 µM): 100%
- viability, T/C (second compound 0.316 µM, first compound 0.01 µM): 106%
- viability, T/C [9]: 98%
- viability, T/C [10]: 90.2%
- viability, T/C (second compound 1 µM, first compound 0.000316 µM): 105%
- viability, T/C (second compound 1 µM, first compound 0.001 µM): 94.7%
- viability, T/C (second compound 1 µM, first compound 0.00316 µM): 102%
- viability, T/C (second compound 1 µM, first compound 0.01 µM): 105%
- viability, T/C [11]: 95.1%
- viability, T/C [12]: 81.7%

SMILES: CNC(=O)c1ccc(N2C(=S)N(c3ccc(C#N)c(C(F)(F)F)c3)C(=O)C2(C)C)cc1F + CC(Nc1ccc2c(c1)OCCn1cc(N3C(=O)OCC3C(F)F)nc1-2)C(N)=O
- IC50 (second compound 0.00316 µM): > 10 µM
- IC50 (second compound 0.01 µM): > 10 µM
- IC50 (second compound 0.0316 µM): > 10 µM
- IC50 (second compound 0.1 µM): > 10 µM
- IC50 (second compound 0.316 µM): > 10 µM
- IC50 (second compound 1 µM): > 10 µM
- viability, T/C [1]: 102%
- viability, T/C [2]: 89.1%
- viability, T/C (second compound 0.00316 µM, first compound 0.316 µM): 101%
- viability, T/C (second compound 0.00316 µM, first compound 1 µM): 94.5%
- viability, T/C (second compound 0.00316 µM, first compound 3.16 µM): 112%
- viability, T/C (second compound 0.00316 µM, first compound 10 µM): 100%
- viability, T/C [3]: 94.7%
- viability, T/C [4]: 101%
- viability, T/C (second compound 0.01 µM, first compound 0.316 µM): 98.3%
- viability, T/C (second compound 0.01 µM, first compound 1 µM): 105%
- viability, T/C (second compound 0.01 µM, first compound 3.16 µM): 99.7%
- viability, T/C (second compound 0.01 µM, first compound 10 µM): 95%
- viability, T/C [5]: 105%
- viability, T/C [6]: 94%
- viability, T/C (second compound 0.0316 µM, first compound 0.316 µM): 102%
- viability, T/C (second compound 0.0316 µM, first compound 1 µM): 97.9%
- viability, T/C (second compound 0.0316 µM, first compound 3.16 µM): 99.8%
- viability, T/C (second compound 0.0316 µM, first compound 10 µM): 102%
- viability, T/C [7]: 102%
- viability, T/C [8]: 87.2%
- viability, T/C (second compound 0.1 µM, first compound 0.316 µM): 110%
- viability, T/C (second compound 0.1 µM, first compound 1 µM): 97.7%
- viability, T/C (second compound 0.1 µM, first compound 3.16 µM): 96.2%
- viability, T/C (second compound 0.1 µM, first compound 10 µM): 108%
- viability, T/C [9]: 95%
- viability, T/C [10]: 113%
- viability, T/C (second compound 0.316 µM, first compound 0.316 µM): 107%
- viability, T/C (second compound 0.316 µM, first compound 1 µM): 102%
- viability, T/C (second compound 0.316 µM, first compound 3.16 µM): 102%
- viability, T/C (second compound 0.316 µM, first compound 10 µM): 94.5%
- viability, T/C [11]: 104%
- viability, T/C [12]: 94.2%
- viability, T/C (second compound 1 µM, first compound 0.316 µM): 102%
- viability, T/C (second compound 1 µM, first compound 1 µM): 104%
- viability, T/C (second compound 1 µM, first compound 3.16 µM): 104%
- viability, T/C (second compound 1 µM, first compound 10 µM): 86.7%
